Measurements from patent US4000281A, “Pyrazole derivatives” (priority 1971, dated 1976).
Read-outs that look alike come from different tables or passages of the source.

Experiments:
Format in all cases: in vivo, mice
Influenza viruses = experiment: Mouse-Survival Test (Test No. 1), Influenza virus strain not given; details: unidentified influenza virus, 360 h; for response vs control in vivo at 500 mg/kg / response vs control in vivo at 5 mg/kg / response vs control in vivo at 50 mg/kg: read-out: Survival Index (S.I.); for responders at 500 mg/kg / responders at 5 mg/kg / responders at 50 mg/kg: read-out: Survival Percent
Influenza virus Jap 305 [1] = details: 1 dose, 30 minutes before infection, 15 multiples of LD50
Influenza virus Jap 305 [2] = experiment: Mouse-Survival Test (Test No. 1), Influenza Jap 305; details: for S.I.: significant if >1.24
[3] = Jap 305, 50 mg/kg PO, virus dose 15 multiples of LD50
[4] = Jap 305, 500 mg/kg IP, virus dose 22 multiples of LD50
[5] = Jap 305, 500 mg/kg PO, virus dose 15 multiples of LD50

## Cc1[nH]nc(-c2ccncc2)c1-c1ccccc1O [Compound B, 3-(4-pyridyl)-4-(2-hydroxyphenyl)-5-methylpyrazole]
Influenza viruses; ip
  response vs control in vivo at 500 mg/kg: 129%
  responders at 500 mg/kg: 0%

## CCCc1[nH]nc(-c2ccncc2)c1-c1ccccc1O [Compound C, 3-(4-pyridyl)-4-(2-hydroxyphenyl)-5-n-propyl-pyrazole]
Influenza viruses; ip
  response vs control in vivo at 500 mg/kg: 184%
  responders at 500 mg/kg: 50%

## CC(C)c1[nH]nc(-c2ccncc2)c1-c1ccccc1O [Compound D, 3-(4-pyridyl)-4-(2-hydroxyphenyl)-5-isopropylpyrazole]
Influenza viruses; ip
  response vs control in vivo at 5 mg/kg: 136%
  response vs control in vivo at 50 mg/kg: 131%
  response vs control in vivo at 500 mg/kg: 269%
  responders at 5 mg/kg: 0%
  responders at 50 mg/kg: 0%
  responders at 500 mg/kg: 100%
Influenza viruses; po
  response vs control in vivo at 50 mg/kg: 167%
  response vs control in vivo at 500 mg/kg: 214%
  responders at 50 mg/kg: 40%
  responders at 500 mg/kg: 60%
Influenza virus Jap 305 [1]; intranasal 2.5% suspension
  MDD (Mean Day of Death): 10.50 days
  S.I.: 1.49
  Survival Percent: 40%
Influenza virus Jap 305 [1]; intranasal 5% suspension
  MDD (Mean Day of Death): 9.76 days
  S.I.: 1.38
  Survival Percent: 30%
Influenza virus Jap 305 [1]; intranasal 10% suspension
  MDD (Mean Day of Death): 13.00 days
  S.I.: 1.84
  Survival Percent: 60%
Influenza virus Jap 305 [2]; [3]
  Survival Percent: 30%
  S.I.: 1.31
Influenza virus Jap 305 [2]; [4]
  Survival Percent: 70%
  S.I.: 2.16
Influenza virus Jap 305 [2]; [5]
  Survival Percent: 100%
  S.I.: 2.12

## CCCCc1[nH]nc(-c2ccncc2)c1-c1ccccc1O [Compound E, 3-(4-pyridyl)-4-(2-hydroxyphenyl)-5-n-butylpyrazole]
Influenza viruses; ip
  response vs control in vivo at 50 mg/kg: 130%
  response vs control in vivo at 500 mg/kg: 162%
  responders at 50 mg/kg: 10%
  responders at 500 mg/kg: 10%

## COc1ccc(O)c(-c2c(-c3ccncc3)n[nH]c2C)c1 [Compound F, 3-(4-pyridyl)-4-(2-hydroxy-5-methoxy-phenyl)-5-methylpyrazole]
Influenza viruses; ip
  response vs control in vivo at 500 mg/kg: 129%
  responders at 500 mg/kg: 0%

## CCc1nn(C)c(-c2ccncc2)c1-c1ccccc1O [Compound G, 2-methyl-3-(4-pyridyl)-4-(2-hydroxyphenyl)-5-ethyl-pyrazole]
Influenza viruses; ip
  response vs control in vivo at 50 mg/kg: 130%
  response vs control in vivo at 500 mg/kg: 217%
  responders at 50 mg/kg: 0%
  responders at 500 mg/kg: 60%

## CCc1nn(C(C)C)c(-c2ccncc2)c1-c1ccccc1O [Compound H, 2-isopropyl-3-(4-pyridyl)-4-(2-hydroxyphenyl)-5-ethylpyrazole]
Influenza viruses; ip
  response vs control in vivo at 50 mg/kg: 135%
  response vs control in vivo at 500 mg/kg: 191%
  responders at 50 mg/kg: 0%
  responders at 500 mg/kg: 30%

## CCCCn1nc(CC)c(-c2ccccc2O)c1-c1ccncc1 [Compound I, 2-n-butyl-3-(4-pyridyl)-4-(2-hydroxyphenyl)-5-ethylpyrazole]
Influenza viruses; ip
  response vs control in vivo at 5 mg/kg: 132%
  response vs control in vivo at 50 mg/kg: 148%
  response vs control in vivo at 500 mg/kg: 191%
  responders at 5 mg/kg: 0%
  responders at 50 mg/kg: 0%
  responders at 500 mg/kg: 14%
